Reference: ChEMBL document CHEMBL3885881, “DrugMatrix”
Several values for one entry are separate records, joined by “and”; a condition that tells them apart may be missing. Equal values may be shown once.

Species: Rattus norvegicus
Assay: DrugMatrix - Regimen: Daily Repeat
Format: toxicity, organism-based, Sprague-Dawley
Parameters: regimen Daily Repeat, gender Male, age 6-8 weeks
Details: in vivo, po, route oral GAVAGE, vehicle .5 % CMC; for ABSOLUTE BASOPHIL / ABSOLUTE LYMPHOCYTE / ABSOLUTE MONOCYTE / ABSOLUTE SEGMENTED NEUTROPHIL / BASOPHIL / EOSINOPHIL / ERYTHROCYTE COUNT / HEMATOCRIT / HEMOGLOBIN / LEUKOCYTE COUNT / LYMPHOCYTE / MEAN CORPUSCULAR HEMOGLOBIN / MEAN CORPUSCULAR HEMOGLOBIN CONCENTRATION / MEAN CORPUSCULAR VOLUME / MONOCYTE / NEUTROPHIL / PLATELET COUNT / ABSOLUTE EOSINOPHIL / NUCLEATED RED BLOOD CELLS: tissue Blood; for ALANINE AMINOTRANSFERASE / ALBUMIN / ALKALINE PHOSPHATASE / ASPARTATE AMINOTRANSFERASE / BLOOD UREA NITROGEN / CARBON DIOXIDE / CHLORIDE / CHOLESTEROL / CREATINE PHOSPHOKINASE / CREATININE / GLUCOSE / LIPASE / PHOSPHORUS / POTASSIUM / SODIUM / TOTAL BILIRUBIN / TOTAL PROTEIN / URIC ACID / LACTATE DEHYDROGENASE: tissue Plasma
[1] = 0 mg/kg, 72 h, dose level Control, time 3 day
[2] = 0 mg/kg, 120 h, dose level Control, time 5 day
[3] = 11 mg/kg, 72 h, dose level Low, time 3 day
[4] = 11 mg/kg, 120 h, dose level Low, time 5 day

SMILES: COc1ccc2c3c1O[C@H]1C[C@@H](O)C=C[C@@]31CCN(C)C2 [GALANTAMINE]
- ABSOLUTE BASOPHIL [1]: 0 CELLS/uL
- ABSOLUTE LYMPHOCYTE [1]: 15937.67 CELLS/uL and 12269.67 CELLS/uL
- ABSOLUTE MONOCYTE [1]: 138.33 CELLS/uL and 160.33 CELLS/uL
- ABSOLUTE SEGMENTED NEUTROPHIL [1]: 1443 CELLS/uL and 970 CELLS/uL
- BASOPHIL [1]: 0%
- EOSINOPHIL [1]: 0.33% and 0%
- ERYTHROCYTE COUNT [1]: 5.45 x10E6/uL and 5.76 x10E6/uL
- HEMATOCRIT [1]: 34.43% and 36.57%
- HEMOGLOBIN [1]: 13.38 G/DL and 14.22 G/DL
- LEUKOCYTE COUNT [1]: 17.57 x10E3/uL and 13.4 x10E3/uL
- LYMPHOCYTE [1]: 90.33% and 91.67%
- MEAN CORPUSCULAR HEMOGLOBIN [1]: 24.6 pg and 24.67 pg
- MEAN CORPUSCULAR HEMOGLOBIN CONCENTRATION [1]: 38.88 G/DL and 38.85 G/DL
- MEAN CORPUSCULAR VOLUME [1]: 63.27 fL and 63.52 fL
- MONOCYTE [1]: 0.83% and 1.17%
- NEUTROPHIL [1]: 8.5% and 7.17%
- PLATELET COUNT [1]: 1298 x10E3/uL and 1250.83 x10E3/uL
- ALANINE AMINOTRANSFERASE [1]: 47.67 u/L and 49.17 u/L
- ALBUMIN [1]: 4.18 G/DL and 4.33 G/DL
- ALKALINE PHOSPHATASE [1]: 398.5 u/L and 378.5 u/L
- ASPARTATE AMINOTRANSFERASE [1]: 93.17 u/L and 82.17 u/L
- BLOOD UREA NITROGEN [1]: 16 mg/dL and 15 mg/dL
- CARBON DIOXIDE [1]: 29.17 mmol/L and 34.33 mmol/L
- CHLORIDE [1]: 98.17 MEQ/L and 99.17 MEQ/L
- CHOLESTEROL [1]: 68.83 mg/dL and 71.17 mg/dL
- CREATINE PHOSPHOKINASE [1]: 467.33 u/L and 258.67 u/L
- CREATININE [1]: 0.14 mg/dL and 0.18 mg/dL
- GLUCOSE [1]: 151.67 mg/dL and 142.67 mg/dL
- LIPASE [1]: 9.33 u/L and 9 u/L
- PHOSPHORUS [1]: 11.97 mg/dL and 11.67 mg/dL
- POTASSIUM [1]: 6.43 MEQ/L and 7.13 MEQ/L
- SODIUM [1]: 140.68 MEQ/L and 142.22 MEQ/L
- TOTAL BILIRUBIN [1]: 0.18 mg/dL
- TOTAL PROTEIN [1]: 5.82 G/DL and 5.77 G/DL
- URIC ACID [1]: 1.48 mg/dL and 1.55 mg/dL
- ABSOLUTE BASOPHIL [2]: 0 CELLS/uL
- ABSOLUTE EOSINOPHIL [2]: 31 CELLS/uL and 23.33 CELLS/uL
- ABSOLUTE LYMPHOCYTE [2]: 14327.83 CELLS/uL and 14943.67 CELLS/uL
- ABSOLUTE SEGMENTED NEUTROPHIL [2]: 1321.67 CELLS/uL and 1084.33 CELLS/uL
- BASOPHIL [2]: 0%
- EOSINOPHIL [2]: 0.17%
- ERYTHROCYTE COUNT [2]: 5.79 x10E6/uL and 5.71 x10E6/uL
- HEMATOCRIT [2]: 36.1% and 35.28%
- HEMOGLOBIN [2]: 14.15 G/DL and 14.27 G/DL
- LEUKOCYTE COUNT [2]: 15.78 x10E3/uL and 16.08 x10E3/uL
- LYMPHOCYTE [2]: 90.5% and 93%
- MEAN CORPUSCULAR HEMOGLOBIN [2]: 24.48 pg and 25.02 pg
- MEAN CORPUSCULAR HEMOGLOBIN CONCENTRATION [2]: 39.22 G/DL and 40.43 G/DL
- MEAN CORPUSCULAR VOLUME [2]: 62.4 fL and 61.82 fL
- MONOCYTE [2]: 0.67% and 0.17%
- NEUTROPHIL [2]: 8.67% and 6.67%
- NUCLEATED RED BLOOD CELLS [2]: 0.17 /100WBC and 0.33 /100WBC
- PLATELET COUNT [2]: 1211.67 x10E3/uL and 1274 x10E3/uL
- ALANINE AMINOTRANSFERASE [2]: 49 u/L and 54.17 u/L
- ALBUMIN [2]: 4.27 G/DL and 4.22 G/DL
- ALKALINE PHOSPHATASE [2]: 356.67 u/L and 373.17 u/L
- ASPARTATE AMINOTRANSFERASE [2]: 90.17 u/L and 81.83 u/L
- BLOOD UREA NITROGEN [2]: 20.5 mg/dL and 16.67 mg/dL
- CARBON DIOXIDE [2]: 29.17 mmol/L and 30.33 mmol/L
- CHLORIDE [2]: 98 MEQ/L and 99 MEQ/L
- CHOLESTEROL [2]: 69.83 mg/dL and 71 mg/dL
- CREATINE PHOSPHOKINASE [2]: 312 u/L and 273.5 u/L
- CREATININE [2]: 0.21 mg/dL and 0.22 mg/dL
- GLUCOSE [2]: 149.83 mg/dL and 141.83 mg/dL
- LACTATE DEHYDROGENASE [2]: 322 u/L and 153.67 u/L
- LIPASE [2]: 10 u/L and 10.33 u/L
- PHOSPHORUS [2]: 12 mg/dL and 11.38 mg/dL
- POTASSIUM [2]: 6.75 MEQ/L and 7.08 MEQ/L
- SODIUM [2]: 142.8 MEQ/L and 142.75 MEQ/L
- TOTAL BILIRUBIN [2]: 0.17 mg/dL and 0.18 mg/dL
- TOTAL PROTEIN [2]: 6.1 G/DL
- URIC ACID [2]: 1.68 mg/dL and 1.67 mg/dL
- ABSOLUTE BASOPHIL [3]: 0 CELLS/uL
- ABSOLUTE EOSINOPHIL [3]: 71.33 CELLS/uL
- ABSOLUTE LYMPHOCYTE [3]: 10973.33 CELLS/uL
- ABSOLUTE MONOCYTE [3]: 201 CELLS/uL
- ABSOLUTE SEGMENTED NEUTROPHIL [3]: 1221 CELLS/uL
- BASOPHIL [3]: 0%
- EOSINOPHIL [3]: 0.67%
- ERYTHROCYTE COUNT [3]: 5.6 x10E6/uL
- HEMATOCRIT [3]: 35.33%
- HEMOGLOBIN [3]: 13.47 G/DL
- LEUKOCYTE COUNT [3]: 12.47 x10E3/uL
- LYMPHOCYTE [3]: 87.67%
- MEAN CORPUSCULAR HEMOGLOBIN [3]: 24.1 pg
- MEAN CORPUSCULAR HEMOGLOBIN CONCENTRATION [3]: 38.13 G/DL
- MEAN CORPUSCULAR VOLUME [3]: 63.17 fL
- MONOCYTE [3]: 1.67%
- NEUTROPHIL [3]: 10%
- NUCLEATED RED BLOOD CELLS [3]: 0 /100WBC
- PLATELET COUNT [3]: 1277.67 x10E3/uL
- ALANINE AMINOTRANSFERASE [3]: 46.67 u/L
- ALBUMIN [3]: 4.13 G/DL
- ALKALINE PHOSPHATASE [3]: 368.33 u/L
- ASPARTATE AMINOTRANSFERASE [3]: 76.33 u/L
- BLOOD UREA NITROGEN [3]: 17 mg/dL
- CARBON DIOXIDE [3]: 29.67 mmol/L
- CHLORIDE [3]: 98.33 MEQ/L
- CHOLESTEROL [3]: 76.33 mg/dL
- CREATINE PHOSPHOKINASE [3]: 222.67 u/L
- CREATININE [3]: 0.18 mg/dL
- GLUCOSE [3]: 154.33 mg/dL
- LACTATE DEHYDROGENASE [3]: 192 u/L
- LIPASE [3]: 9.67 u/L
- PHOSPHORUS [3]: 12.47 mg/dL
- POTASSIUM [3]: 6.58 MEQ/L
- SODIUM [3]: 142 MEQ/L
- TOTAL BILIRUBIN [3]: 0.2 mg/dL
- TOTAL PROTEIN [3]: 5.83 G/DL
- URIC ACID [3]: 1.5 mg/dL
- ABSOLUTE BASOPHIL [4]: 0 CELLS/uL
- ABSOLUTE EOSINOPHIL [4]: 0 CELLS/uL
